Read-outs that look alike come from different tables or passages of the source.
Assay: LC/MS retention time of standard compounds and sponge extract (in-house platform)
Format: physicochemical
Parameters: RT (retention time): unit not given here
Procedure: Total 22 compounds and 9 PNPA standards covering a long time-range were purchased as reference standards (Table 1). Each standard compound was experimentally measured with our in-house LC/MS platform with conditions in Supporting Table 1, available as supplementary data at Bioinformatics Advances online.
The resulting extract was dissolved in methanol and subjected to LC/MS analysis with conditions in Supporting Table 1, available as supplementary data at Bioinformatics Advances online, for metabolite profiling.

[1] = purchased PNPA standard, in-house LC/MS platform, conditions in Supporting Table 1 (not shown), retention time related to hydrophobic/hydrophilic substructures, unit not given

Compound	RT (retention time) [1]	other results
Gramicidin A	9.19	
Bacitracin		RT (retention time): 4.67
C=CC/C(=N/OS(=O)(=O)O)S[C@@H]1O[C@H](CO)[C@@H](O)[C@H](O)[C@H]1O [2-Propenyl glucosinolate]		RT (retention time of the reference compound) (LC/MS, in-house platform, reference compound used for retention order comparison, sheet COCONUT): 1.74 min
C/C(=C\c1csc(C)n1)[C@@H]1C[C@@H]2O[C@]2(C)CCC[C@H](C)[C@H](O)[C@@H](C)C(=O)C(C)(C)[C@@H](O)CC(=O)O1 [Epothilone B]	7.67	
[Arg8]-Vasopressin	3.11	
Jaspamide [Measured compound]		Retention order of the measured compound against reference compound 2-Propenyl glucosinolate (binary 1/0) (column 'Measured compound', reference RT 1.74, observed order, no key for 1/0 printed, sheet COCONUT): 1; RT (retention time) of measured compound (compound detected in methanol extract of marine sponge Jaspis splendens, same in-house LC/MS conditions (Supporting Table 1), annotated as Jaspamide via retention order and MS/MS, unit not given): 8.45
α-Amanitin	3.41	
